The target of assay [1] is Recombinant purified human JAK3 (Homo sapiens (Human), UniProt P52333). Description: JAK3 kinase inhibitory activity, ADP-Glo kinase assay kit (Promega V9441). The format is biochemical. The note with it: ATP 5 uM, 4 ng JAK3 per reaction, 1 hour at 30° C., chemiluminescence. The procedure:
(§1) JAK3 and BTK kinase inhibitory activities were measured for the compounds prepared in the above Examples through in vitro analysis on the ADP Glow (Glo) platform.
(§2) Specifically, the inhibitory activities of JAK3 and BTK kinase were measured using a JAK3 kinase assay kit (Promega, V9441) and a BTK kinase assay kit (Promega, V9071) which were purchased from Promega. Recombinant purified human JAK3 and BTK were diluted with 1× kinase reaction buffer (JAK3: 40 mM Tris-Cl, pH 7.5, 20 mM MgCl2, 0.1 mg/mL BSA and 50 uM DTT/BTK: 40 mM Tris-Cl, pH 7.5, 20 mM MgCl2, 0.1 mg/mL BSA, 2 mM MnCl2 and 50 uM DTT) and added to a 96 well plate (JAK3: final concentration of 4 ng per reaction/BTK: final concentration of 8 ng per reaction). […] After incubation (30° C.) for 1 hour, equivalent volume (25 uL per reaction) of ADP Glo was added and incubated (30° C.) for 40 minutes at room temperature. Then, a kinase detection reagent (50 uL per reaction) was added and incubated (30° C.) for 30 minutes at room temperature. The kinase activity was measured by chemiluminescence according to the instructions of ADP Glo kinase assay kit, and the inhibitory activity of the compounds according to the present invention was calculated.

Assay [2] addresses Recombinant purified human BTK (Homo sapiens (Human), UniProt Q06187). The assay is described as follows: BTK kinase inhibitory activity, ADP-Glo kinase assay kit (Promega V9071). The format is biochemical. The note with it: ATP 10 uM, 8 ng BTK per reaction, 1 hour at 30° C., chemiluminescence. The procedure:
as §1, §2
For orientation: ADP-Glo first removes unused ATP, then detects ADP through luciferase.

Data on 22 compounds can be found in US11084823B2, “Substituted pyrrolo[2,1-f][1,2,4]triazines as kinase inhibitors” (Daewoong Pharmaceutical Co., Ltd., priority 2017, dated 2021).

Sequence of Recombinant purified human JAK3 (P52333 whole entry): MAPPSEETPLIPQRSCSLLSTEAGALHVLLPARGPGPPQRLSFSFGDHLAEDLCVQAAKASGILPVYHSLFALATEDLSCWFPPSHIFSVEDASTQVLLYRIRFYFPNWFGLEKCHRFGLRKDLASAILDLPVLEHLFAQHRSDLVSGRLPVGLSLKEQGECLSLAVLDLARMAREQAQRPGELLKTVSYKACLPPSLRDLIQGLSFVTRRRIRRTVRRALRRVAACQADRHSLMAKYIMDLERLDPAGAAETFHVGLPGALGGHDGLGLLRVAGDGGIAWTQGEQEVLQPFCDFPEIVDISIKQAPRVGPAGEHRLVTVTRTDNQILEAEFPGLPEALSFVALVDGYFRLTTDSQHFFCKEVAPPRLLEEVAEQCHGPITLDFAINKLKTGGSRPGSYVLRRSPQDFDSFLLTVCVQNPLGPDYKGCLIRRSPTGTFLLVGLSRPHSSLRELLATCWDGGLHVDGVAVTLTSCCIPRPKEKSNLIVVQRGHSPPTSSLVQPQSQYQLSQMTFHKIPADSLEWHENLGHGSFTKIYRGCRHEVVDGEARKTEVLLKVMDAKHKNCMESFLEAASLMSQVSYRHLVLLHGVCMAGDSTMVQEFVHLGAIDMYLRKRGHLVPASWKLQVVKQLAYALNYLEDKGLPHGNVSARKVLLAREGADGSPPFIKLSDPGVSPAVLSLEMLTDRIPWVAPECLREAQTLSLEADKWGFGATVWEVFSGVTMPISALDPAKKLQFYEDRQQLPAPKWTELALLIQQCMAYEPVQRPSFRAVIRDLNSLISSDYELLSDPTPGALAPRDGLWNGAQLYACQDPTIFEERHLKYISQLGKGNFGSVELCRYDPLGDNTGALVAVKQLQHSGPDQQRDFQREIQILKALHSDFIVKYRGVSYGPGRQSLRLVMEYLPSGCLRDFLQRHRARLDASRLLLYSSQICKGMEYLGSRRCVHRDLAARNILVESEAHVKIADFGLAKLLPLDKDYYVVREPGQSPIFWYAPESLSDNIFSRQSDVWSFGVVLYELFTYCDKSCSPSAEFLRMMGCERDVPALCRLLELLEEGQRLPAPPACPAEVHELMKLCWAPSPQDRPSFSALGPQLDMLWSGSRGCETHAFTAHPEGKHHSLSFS
Sequence of Recombinant purified human BTK (Q06187 whole entry): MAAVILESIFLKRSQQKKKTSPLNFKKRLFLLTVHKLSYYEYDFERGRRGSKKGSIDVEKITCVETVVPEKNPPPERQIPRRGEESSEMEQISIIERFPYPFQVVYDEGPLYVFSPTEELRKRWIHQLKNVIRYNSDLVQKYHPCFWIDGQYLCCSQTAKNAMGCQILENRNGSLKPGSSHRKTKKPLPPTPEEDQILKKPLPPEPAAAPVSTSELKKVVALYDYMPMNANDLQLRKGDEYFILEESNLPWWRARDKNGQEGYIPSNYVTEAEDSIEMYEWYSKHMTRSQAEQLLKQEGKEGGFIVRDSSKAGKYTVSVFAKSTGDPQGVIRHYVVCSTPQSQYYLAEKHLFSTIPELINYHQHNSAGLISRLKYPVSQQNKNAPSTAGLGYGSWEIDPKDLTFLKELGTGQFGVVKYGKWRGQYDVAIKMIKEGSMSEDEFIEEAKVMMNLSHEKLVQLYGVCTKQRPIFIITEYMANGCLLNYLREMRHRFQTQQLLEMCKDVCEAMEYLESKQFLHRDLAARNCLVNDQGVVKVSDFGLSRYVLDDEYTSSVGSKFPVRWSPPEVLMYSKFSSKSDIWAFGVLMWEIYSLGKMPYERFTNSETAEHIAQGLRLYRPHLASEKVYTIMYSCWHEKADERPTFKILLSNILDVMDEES

For orientation: IC50 means the midpoint of a concentration-inhibition curve. As to `C=CC(=O)Nc1ccc(F)c(Oc2nc(Nc3ccc(OC)cc3)nn3cccc23)c1` [Example 28, N-(4-fluoro-3-((2-((4-methoxyphenyl)amino)pyrrolo[2,1-f][1,2,4]triazin-4-yl)oxy)phenyl)acrylamide], the IC50 in assay [1] was 9.2 nM; in assay [2] it was 52 nM.

As to `C=CC(=O)Nc1ccc(F)c(Oc2nc(Nc3ccc(C(=O)N4CCOCC4)cc3)nn3cccc23)c1` [Example 29, N-(4-fluoro-3-((2-((4-(morpholine-4-carbonyl)phenyl)amino)pyrrolo[2,1-f][1,2,4]triazin-4-yl)oxy)phenyl)acrylamide], the values for the IC50 in assay [1] and in assay [2] were 2 nM and 23.1 nM, respectively.

Regarding `C=CC(=O)Nc1ccc(F)c(Oc2nc(Nc3ccsc3)nn3cccc23)c1` [Example 30, N-(4-fluoro-3-((2-((thiophen-3-yl)amino)pyrrolo[2,1-f][1,2,4]triazin-4-yl)oxy)phenyl)acrylamide], the IC50 was 7.6 nM in assay [1] and 66.6 nM in assay [2].

Take `C=CC(=O)Nc1ccc(F)c(Oc2nc(Nc3ccc(N4CCOCC4)cc3)nn3cccc23)c1` [Example 31, N-(4-fluoro-3-((2-((4-morpholinophenyl)amino)pyrrolo[2,1-f][1,2,4]triazin-4-yl)oxy)phenyl)acrylamide]: the IC50 in assay [1] turned out to be 4.5 nM; in assay [2], 27.4 nM.

Regarding `C=CC(=O)Nc1ccc(F)c(Oc2nc(Nc3cnn(CCC)c3)nn3cccc23)c1` [Example 32, N-(4-fluoro-3-((2-((1-propyl-1H-pyrazol-4-yl)amino)pyrrolo[2,1-f][1,2,4]triazin-4-yl)oxy)phenyl)acrylamide], the half-maximal inhibitory concentration (IC50) in assay [1] was found to be 1.4 nM; in assay [2], 9.1 nM.

Consider `C=CC(=O)Nc1ccc(F)c(Oc2nc(Nc3cnn(C(F)F)c3)nn3cccc23)c1` [Example 33, N-(3-((2-((1-(difluoromethyl)-1H-pyrazol-4-yl)amino)pyrrolo[2,1-f][1,2,4]triazin-4-yl)oxy)-4-fluorophenyl)acrylamide], for which the 50% inhibitory concentration (IC50) in assay [1] stood at 2.8 nM; in assay [2], 15.3 nM.

With `C=CC(=O)Nc1ccc(F)c(Oc2nc(Nc3cnn(C4CCOCC4)c3)nn3cccc23)c1` [Example 34, N-(4-fluoro-3-((2-((1-(tetrahydro-2H-pyran-4-yl)-1H-pyrazol-4-yl)amino)pyrrolo[2,1-f][1,2,4]triazin-4-yl)oxy)phenyl)acrylamide], the IC50 in assay [1] was 0.5 nM; in assay [2], 2.4 nM.

As to `C=CC(=O)Nc1ccc(F)c(Oc2nc(Nc3cnn(CCN4CCOCC4)c3)nn3cccc23)c1` [Example 35, N-(4-fluoro-3-((2-((1-(2-morpholinoethyl)-1H-pyrazol-4-yl)amino)pyrrolo[2,1-f][1,2,4]triazin-4-yl)oxy)phenyl)acrylamide], the half-maximal inhibitory concentration (IC50) came to 0.7 nM in assay [1] and 3.5 nM in assay [2].

As for `C=CC(=O)Nc1ccc(F)c(Oc2nc(Nc3cnn(C(C)C)c3)nn3cccc23)c1` [Example 36, N-(4-fluoro-3-((2-((1-isopropyl-1H-pyrazol-4-yl)amino)pyrrolo[2,1-f][1,2,4]triazin-4-yl)oxy)phenyl)acrylamide], the IC50 in assay [1] came to 1.1 nM; in assay [2] it was 4.4 nM.

As to `C=CC(=O)Nc1ccc(F)c(Oc2nc(Nc3cnn(C4CCNCC4)c3)nn3cccc23)c1` [Example 37, N-(4-fluoro-3-((2-((1-(piperidin-4-yl)-1H-pyrazol-4-yl)amino)pyrrolo[2,1-f][1,2,4]triazin-4-yl)oxy)phenyl)acrylamide], the IC50 was found to be 11.5 nM in assay [1] and 63.6 nM in assay [2].

Turning to `C=CC(=O)Nc1ccc(F)c(Oc2nc(Nc3cnn(CC(F)(F)F)c3)nn3cccc23)c1` [Example 38, N-(4-fluoro-3-((2-((1-(2,2,2-trifluoroethyl)-1H-pyrazol-4-yl)amino)pyrrolo[2,1-f][1,2,4]triazin-4-yl)oxy)phenyl)acrylamide], the results for the IC50 in assay [1] and in assay [2] were 1.8 nM and 16.5 nM, respectively.

For `C=CC(=O)Nc1ccc(F)c(Oc2nc(Nc3ccc(-n4nc(C)cc4C)cc3)nn3cccc23)c1` [Example 39, N-(3-((2-((4-(3,5-dimethyl-1H-pyrazol-1-yl)phenyl)amino)pyrrolo[2,1-f][1,2,4]triazin-4-yl)oxy)-4-fluorophenyl)acrylamide], the IC50 was 23.5 nM in assay [1] and 111 nM in assay [2].

Consider `C=CC(=O)Nc1ccc(F)c(Oc2nc(Nc3cnn(CCOC)c3)nn3cccc23)c1` [Example 40, N-(4-fluoro-3-((2-((1-(2-methoxyethyl)-1H-pyrazol-4-yl)amino)pyrrolo[2,1-f][1,2,4]triazin-4-yl)oxy)phenyl)acrylamide], for which the IC50 in assay [1] was found to be 2.8 nM; in assay [2], 23 nM.

As for `O=C(CCl)Nc1ccc(F)c(Oc2nc(Nc3cnn(CC(F)F)c3)nn3cccc23)c1` [Example 41, 2-chloro-N-(3-((2-((1-(2,2-difluoroethyl)-1H-pyrazol-4-yl)amino)pyrrolo[2,1-f][1,2,4]triazin-4-yl)oxy)-4-fluorophenyl)acetamide], the results for the IC50 in assay [1] and in assay [2] were 0.7 nM and 1.2 nM, respectively.

Consider `O=C(CCl)Nc1ccc(F)c(Oc2nc(Nc3cnn(C4CCOCC4)c3)nn3cccc23)c1` [Example 42, 2-chloro-N-(4-fluoro-3-((2-((1-(tetrahydro-2H-pyran-4-yl)-1H-pyrazol-4-yl)amino)pyrrolo[2,1-f][1,2,4]triazin-4-yl)oxy)phenyl)acetamide], for which the results for the IC50 in assay [1] and in assay [2] were 0.5 nM and 1.3 nM, respectively.

In the case of `CCn1cc(Nc2nc(Oc3cc(NC(=O)CCl)ccc3F)c3cccn3n2)cn1` [Example 43, 2-chloro-N-(3-((2-((1-ethyl-1H-pyrazol-4-yl)amino)pyrrolo[2,1-f][1,2,4]triazin-4-yl)oxy)-4-fluorophenyl)acetamide], the IC50 was 0.7 nM in assay [1] and 1.2 nM in assay [2].

Turning to `CCn1cc(Nc2nc(Oc3cc(NC(=O)/C=C/CCl)ccc3F)c3cccn3n2)cn1` [Example 44, (E)-4-chloro-N-(3-((2-((1-ethyl-1H-pyrazol-4-yl)amino)pyrrolo[2,1-f][1,2,4]triazin-4-yl)oxy)-4-fluorophenyl)but-2-enamide], the half-maximal inhibitory concentration (IC50) worked out at 99.5 nM in assay [1] and 114 nM in assay [2].

`C=CC(=O)Nc1ccc(F)c(Oc2nc(Nc3cnoc3)nn3cccc23)c1` [Example 45, N-(4-fluoro-3-(2-(isoxazol-4-ylamino)pyrrolo[2,1-f][1,2,4]triazin-4-yloxy)phenyl)acrylamide]: the IC50 in assay [1] was 32 nM; in assay [2], 206 nM.

As to `C=CC(=O)Nc1ccc(Cl)c(Oc2nc(Nc3cnn(CC)c3)nn3cccc23)c1` [Example 46, N-(4-chloro-3-((2-((1-ethyl-1H-pyrazol-4-yl)amino)pyrrolo[2,1-f][1,2,4]triazin-4-yl)oxy)phenyl)acrylamide], the IC50 in assay [1] was found to be 56.8 nM; in assay [2] it was 269 nM.

With `C=CC(=O)Nc1cc(Oc2nc(Nc3cnn(CC)c3)nn3cccc23)ccc1C` [Example 47, N-(5-((2-((1-ethyl-1H-pyrazol-4-yl)amino)pyrrolo[2,1-f][1,2,4]triazin-4-yl)oxy)-2-methylphenyl)acrylamide], the IC50 in assay [1] was determined as 13 nM; in assay [2], 52.2 nM.

For the compound `C=CC(=O)Nc1cc(Oc2nc(Nc3cnn(CC(F)F)c3)nn3cccc23)ccc1C` [Example 48, N-(5-((2-((1-(2,2-difluoroethyl)-1H-pyrazol-4-yl)amino)pyrrolo[2,1-f][1,2,4]triazin-4-yl)oxy)-2-methylphenyl)acrylamide], the concentration for half-maximal inhibition (IC50) in assay [1] worked out at 13.8 nM; in assay [2], 73.4 nM.

Take `CCC#CC(=O)Nc1ccc(F)c(Oc2nc(Nc3cnn(CC(F)F)c3)nn3cccc23)c1` [Example 49, N-(3-((2-((1-(2,2-difluoroethyl)-1H-pyrazol-4-yl)amino)pyrrolo[2,1-f][1,2,4]triazin-4-yl)oxy)-4-fluorophenyl)pent-2-ynamide]: the IC50 in assay [1] is > 400 nM; in assay [2], 30 nM.
